Consider eight compounds from patent US9198909B1, “Materials and methods for inhibiting mamalian S-nitrosoglutathione reductase” (Indiana University Research and Technology Corporation, priority 2007, dated 2015).

The target in one assay is T1, π-ADH (Homo sapiens, UniProt P08319).
T1 construct: made in house; host or cells: E. coli
The assay can be described thus: ADH isozyme selectivity study: π-ADH. The assay is classed as biochemical. The conditions noted are these: about 5 μM inhibitor, pH 7.5, 1 mM NAD+, 35 mM ethanol. Here is the method: (§1) Referring now to Table 2, briefly inhibition studies were performed in presence or absence of about 5 μM inhibitor. These studies were carried out at 25° C. in 50 mM potassium phosphate pH 7.5 including 0.1 mM EDTA. The enzymes activities were measured by following the changes in absorbance at 340 nm. The values show the percent reduction in the enzyme activity (from a minimum of two measurements) caused by the inhibitor. […] Studies with β2β2-, σσ-, π-ADH and involving compounds 5-8 were performed in 0.05% DMSO. Studies with GSNOR were performed in presence of 1% DMSO, except when compound 4 was the inhibitor. Studies with compound 4 were performed in 0.36% DMSO. DMSO at 0.36% inhibited β2β2-, σσ-, and π-ADH by 24, 18, and 9%, respectively. Studies with β2β2-ADH involved adding 3.5 μg of the enzyme to the assay mixture including 2 mM NAD^+, 1 mM ethanol and the inhibitor.
(§2) Studies with σσ-ADH involved adding 0.5 μg of enzyme to the assay mixture containing 2 mM NAD^+, 30 mM ethanol and the inhibitor. Studies with π-ADH involved adding 19.5 μg of the enzyme to the assay mixture including 1 mM NAD^+, 35 mM ethanol and the inhibitor. […]
(§3) Inhibition of the β2β2-, π-, and σ-ADH was evaluated by determining the inhibitory effect of GSNOR inhibitors on the rate of oxidation of ethanol by each of these ADH isozymes. […]

In a further assay the target is T2, σ-ADH (Homo sapiens, UniProt P40394).
T2 construct: made in house; host or cells: E. coli
T2 sequence (P40394 whole entry): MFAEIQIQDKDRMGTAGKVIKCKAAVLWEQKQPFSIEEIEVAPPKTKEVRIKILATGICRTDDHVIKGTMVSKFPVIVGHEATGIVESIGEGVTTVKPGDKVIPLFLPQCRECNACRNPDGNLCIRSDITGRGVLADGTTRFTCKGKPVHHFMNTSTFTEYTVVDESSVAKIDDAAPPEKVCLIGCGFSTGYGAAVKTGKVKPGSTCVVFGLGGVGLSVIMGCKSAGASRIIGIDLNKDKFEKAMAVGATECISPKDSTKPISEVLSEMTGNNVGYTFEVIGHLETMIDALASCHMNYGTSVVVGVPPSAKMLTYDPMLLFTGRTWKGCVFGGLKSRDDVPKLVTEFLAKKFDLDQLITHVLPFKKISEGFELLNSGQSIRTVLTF
The experiment in a line: ADH isozyme selectivity study: σ-ADH. It counts as biochemical. The conditions noted are these: about 5 μM inhibitor, pH 7.5, 2 mM NAD+, 30 mM ethanol. As for the experimental part:
as §1, §2, §3

Assay [1] addresses T3, GSNOR (Homo sapiens, UniProt P11766). The experiment in a line: ADH isozyme selectivity study: GSNOR. It counts as biochemical. On the set-up: made in house; host or cells: E. coli. As to conditions: about 5 μM inhibitor, pH 7.5. Here is the method: as §1
Target sequence in this assay (P11766 2-374 limits assumed): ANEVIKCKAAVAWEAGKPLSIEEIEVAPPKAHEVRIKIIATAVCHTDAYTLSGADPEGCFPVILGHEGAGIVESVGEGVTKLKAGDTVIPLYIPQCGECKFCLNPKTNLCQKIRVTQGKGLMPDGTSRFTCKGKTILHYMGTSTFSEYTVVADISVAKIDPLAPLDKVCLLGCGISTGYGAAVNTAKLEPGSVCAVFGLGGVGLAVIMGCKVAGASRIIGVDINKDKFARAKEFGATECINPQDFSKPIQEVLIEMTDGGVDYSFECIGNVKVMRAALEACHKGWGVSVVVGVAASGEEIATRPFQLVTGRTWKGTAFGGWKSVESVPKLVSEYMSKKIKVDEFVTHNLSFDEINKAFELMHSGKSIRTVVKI
Studies with σσ-ADH involved adding 0.5 μg of enzyme to the assay mixture containing 2 mM NAD^+, 30 mM ethanol and the inhibitor. Studies with π-ADH involved adding 19.5 μg of the enzyme to the assay mixture including 1 mM NAD^+, 35 mM ethanol and the inhibitor. Studies with GSNOR involved adding 0.1 μg of the enzyme to an assay mixture including 15 μM NADH, 5 μM GSNO and the inhibitor.

The target of assay [2] is T3, GSNOR. The experiment in a line: Dead-end inhibition studies of GSNOR. The assay is classed as biochemical. On the set-up: made in house; host or cells: E. coli. The conditions noted are these: pH 7.5, 25° C., GSNO held at 10 μM. Here is the method: Referring now to Table 3, inhibition experiments were performed at 25° C. in 50 mM potassium phosphate (pH 7.5) including 0.1 mM EDTA. A minimum of five concentrations of the varied substrate and three inhibitor concentrations were used for each experiment. NADH and GSNO concentrations were held at 15 or 10 μM, respectively when present as a constant substrate in the assay. The Kis and Kii values are respectively the slope and intercept inhibition constants and are listed along with their associated standard errors. All data were fit to a competitive (C), noncompetitive (NC), or uncompetitive (UC) inhibition models. The type of inhibition shown in the table represents the best fit of the data to the given model as judged from F statistics analysis. […] The dissociation constant was measured at 25° C. in 50 mM potassium phosphate pH 7.5. Each KD value is an average of three independent experiments and is shown with the associated standard error.
Inhibition experiments with the GSNOR inhibitors were conducted at 25° C. in 3 ml of 50 mM potassium phosphate (pH 7.5) containing 0.1 mM EDTA. […] A minimum of three inhibitor concentrations were used in these assays and the rate of NADH and GSNO consumption was determined spectrophotometrically by following change in absorbance at 340 nm. […]
Target sequence in this assay (P11766 2-374 limits assumed): as above

A further assay concerns RAW 264.7 cells. The experiment in a line: Nitroso species accumulation in RAW 264.7 cells (triiodide chemiluminescence). The assay is classed as cell-based, rat. Here is the method:
Referring now to FIG. 3, briefly, RAW 264.7 cells were incubated with 500 μM GSNO alone (γ) or in presence of 33 μM Compound 6 (◯) or 7 (Δ) or 8 (▪). At indicated times or at 4 hr (in case of B), the cells were lysed and the lysate was analyzed for protein and nitroso species concentration by Bradford and chemiluminescence assay, respectively. For details, see Materials and methods. Data represents mean±SE (n=3−12).
RAW 264.7 cells were cultured in DMEM medium supplemented with 10% FBS, 200 U/ml of penicillin and 200 μg/mL of streptomycin. The cells were incubated at 37° C. in an atmosphere containing 5% CO2 and 95% air. For the experiments, 1-2×10^6 cells were plated in six-well plates a day before the experiment. On the day of the assay the medium was replaced with 3 ml of fresh medium and the cells were treated with compounds for a predetermined length of time. Following the incubation period, the cells were washed three times with PBS and scraped off the plate in 250 μl of lysis buffer (50 mM potassium phosphate pH 7.0 containing 50 mM NEM and 1 mM EDTA). Cells were lysed by sonication using a micro tip probe (three pulses of 30% duty cycle; 2 output control on a Fisher Sonicator). Cell debris was pelleted by centrifugation (10 min at 16,000 g) and the cell lysate was analyzed for protein concentration using the Bio-Rad dye-binding protein assay. The concentration of nitroso compounds in the cell lysate was determined using the triiodide based chemiluminescence method using a Sievers 280 nitric oxide analyzer. Briefly, cell lysates were treated with 15% v/v of a sulfanilamide solution (5% w/v in 0.2 M HCl) and kept at room temperature for 5 min to remove nitrite. The triodide mixture was prepared fresh every day as described earlier and kept at 60° C. in the reaction vessel. The concentration of nitroso species was derived from a standard curve generated using GSNO. For determining the amount of the small size nitroso compounds in the cell lysate, a 5 kDa-cutoff Amicon ultra filtration unit was used according to the supplier's instructions. The amount of s-nitrosothiols in the cell lysate was determined by treating initially passing the cell lysate through a microspin column and treating the eluate with 5 mM HgCl2 before determining the nitroso compound concentration using chemiluminescence. For some experiments the cells were pretreated with the compounds for 16 hours prior to the day of experiment.

Assay [3] addresses T4, GSNOR•NADH complex (Homo sapiens, UniProt P11766).
T4 construct: made in house; host or cells: E. coli
The experiment in a line: Fluorescence equilibrium binding to GSNOR•NADH complex. As to conditions: 1.7 μM NADH, 2 μM GSNOR, 50 μM compound 8. Here is the method:
Referring now to FIG. 2, (A) Changes in the fluorescence of NADH (curve a) upon sequential addition of GSNOR (curve b) and compound 8 (curve c). To a solution of 1.7 μM NADH were added 2 μM GSNOR and 50 μM compound 8 in sequence and the fluorescence of the solution measured each time (λexc=350 nm; λemm=375-550 nm); (B) Changes in the fluorescence of NADH (curve a) upon sequential addition of GSNOR (curve b), 12-HDDA (curve c) and compound 8 (curve d). To a solution of 1.7 μM NADH were added 2 μM GSNOR, 810 μM 12-HDDA and 50 μM compound 8 in sequence and the fluorescence measured each time (λexc=350 nm; λemm=375-550 nm); (C) Binding of compound 8 to GSNOR•NADH complex. The change in fluorescence of a 1.7 μM NADH and 2 μM GSNOR mixture (λexc=350 nm; λemm=455 nm) with increasing concentrations of compound 8 was fitted to a single site binding model (equation 1; see materials and methods) using the Graphpad Prizm 4. All of the fluorescence studies were conducted at room temperature in 50 mM potassium phosphate pH 7.5.
Referring now to Table 3, inhibition experiments were performed at 25° C. in 50 mM potassium phosphate (pH 7.5) including 0.1 mM EDTA. […] The dissociation constant was measured at 25° C. in 50 mM potassium phosphate pH 7.5. […]
Fluorescence studies were conducted in 50 mM potassium phosphate pH 7.5, at room temperature using a Fluoromax-2 fluorescence spectrometer (Instruments S.A., Inc., Edison, N.J.). The equilibrium dissociation constant of GSNOR inhibitors was determined by measuring the changes in the fluorescence of GSNOR bound NADH (λexc=350 nm; λemm=455 nm) upon the addition of inhibitor. […] The decrease in fluorescence at 455 nm with each addition of inhibitor was plotted against the final concentration of inhibitor and the data were fitted to equation 1 using nonlinear regression to obtain the dissociation constant of the inhibitor for GSNOR-NADH complex,
[formula] In equation 1, ΔF is the change in the fluorescence at 455 nm upon the addition of inhibitor. ΔFM is the maximum fluorescence change that was obtained from curve fitting. […]

In assay [4] the target is T4, GSNOR•NADH complex. As to conditions: alcohol substrate, abortive ternary complex; read-out: dissociation constant for the GSNOR•NADH complex; cited from earlier work.
The target in assay [5] is T3, GSNOR. The conditions noted are these: read-out: KD of NADH for GSNOR; cited from earlier work.
Target sequence in this assay (P11766 whole entry): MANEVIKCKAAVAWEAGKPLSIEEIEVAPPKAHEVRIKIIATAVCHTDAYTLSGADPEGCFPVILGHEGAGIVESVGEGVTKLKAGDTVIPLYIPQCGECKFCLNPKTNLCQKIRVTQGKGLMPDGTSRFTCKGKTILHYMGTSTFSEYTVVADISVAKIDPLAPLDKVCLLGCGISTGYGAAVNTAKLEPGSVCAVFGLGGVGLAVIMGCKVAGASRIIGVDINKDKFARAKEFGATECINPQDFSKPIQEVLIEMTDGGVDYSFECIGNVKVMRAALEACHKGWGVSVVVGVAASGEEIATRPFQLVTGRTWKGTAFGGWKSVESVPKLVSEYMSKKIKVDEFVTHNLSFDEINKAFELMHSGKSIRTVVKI
Assay [6] deals with T3, GSNOR. The experiment in a line: GSNOR inhibition at pH 7.5 (GSNO, NADH). It counts as biochemical. Further details: made in house; host or cells: E. coli. The conditions noted are these: Table 1; pH not stated. As for the experimental part:
Referring now to Table 1, inhibition was studied at pH 10. These assays were performed in 0.1 M sodium glycine containing 1 mM octanol, 1 mM NAD^+, 0.1 mM EDTA and 50 μM inhibitor. Inhibition studies at pH 7.5 were performed in 50 mM potassium phosphate pH 7.5 that included 15 μM NADH, 10 μM GSNO, 0.1 mM EDTA and 50 μM inhibitor. The data file to a model consisted with partial inhibition and a hill coefficient of 2.4 in the inhibition curve. The screening for GSNOR inhibitors was performed using a library of 60,000 compounds from ChemDiv Inc in the Chemical Genomics Core facility at Indiana University. Screening was conducted in 384 well plates and involved incubating GSNOR with 12.5 μM compound, 1 mM each of NAD^+ and octanol in 0.1 M sodium glycine pH 10. Enzyme activity was determined by measuring the rate of production of NADH spectrophotometrically at 340 nm. Inhibition of GSNOR was calculated from the ratio of enzyme activity in the presence of compounds to that in no compound controls performed on the same assay plate. Following their identification from the high-throughput screening, the GSNOR inhibitory properties of the initial hits were confirmed at the pH 10 using 12-hydroxydodecanoic acid as the substrate and at pH 7.5 using GSNO as the substrate (see the brief description of Table 1 for details on how the assay was carried out.)
Target sequence in this assay (P11766 2-374 limits assumed): as the sequence (P11766 2-374 limits assumed) above

Assay [7] deals with T3, GSNOR. The experiment in a line: GSNOR substrate kinetics with octanol. It counts as biochemical. As to conditions: octanol versus GSNO. Here is the method:
GSNOR is an alcohol dehydrogenases and like other members of ADH family, is capable of oxidizing and reducing primary alcohols and aldehydes with the help of a molecule of NAD(H). Octanol was chosen as the substrate in the initial screening assay as it is bulky like GSNO, but has 200-fold higher KM value (1 mM) and a kcat value (200 min-1) that is more than 2 order of magnitude lower than that of GSNO. This allows the initial velocity conditions to prevail for a period up to 10 min (data not shown) and it enables conducting a large number of concurrent assays in a384 well plate format. The pH of the assay was adjusted to pH 10 in order to get significant rate of oxidation of octanol in the absence of compounds. The screening for GSNOR inhibitors was performed in the presence of saturating concentration of NAD^+ and an un-saturating concentration of octanol thereby increase the probability of identifying compounds that bind, only or primarily in the GSNO binding site of GSNOR. This was deemed desirable as there are many dehydrogenases inside the cells and compounds binding in the coenzyme binding site are more likely to be nonspecific inhibitors of GSNOR, than compounds that bind primarily to the form of GSNOR that binds GSNO.
Target sequence in this assay (P11766 whole entry): as the sequence (P11766 whole entry) above

T4 sequence (P11766 2-374 limits assumed, one chain of several): as the sequence (P11766 2-374 limits assumed) above
T1 sequence (P08319 whole entry): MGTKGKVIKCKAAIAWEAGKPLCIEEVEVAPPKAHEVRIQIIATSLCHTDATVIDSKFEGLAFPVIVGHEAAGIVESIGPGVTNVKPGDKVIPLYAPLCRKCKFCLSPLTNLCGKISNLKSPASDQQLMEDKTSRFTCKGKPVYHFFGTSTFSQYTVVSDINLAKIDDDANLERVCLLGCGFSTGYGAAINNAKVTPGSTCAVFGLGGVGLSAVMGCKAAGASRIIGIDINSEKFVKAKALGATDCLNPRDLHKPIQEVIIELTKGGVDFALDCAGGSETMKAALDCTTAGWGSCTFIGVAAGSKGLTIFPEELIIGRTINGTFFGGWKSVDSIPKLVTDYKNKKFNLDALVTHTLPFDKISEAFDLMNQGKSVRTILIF

In the case of `Cc1ccc(C)c(-c2csc(-c3cc4ccc(O)cc4oc3=O)n2)c1` [Compound 4], the “inhibition of π-ADH” value against π-ADH is “inhibited π-ADH more than GSNOR”.

In the case of `CC(=O)Oc1ccc(C2Nc3ccc(C(=O)O)cc3C3C=CCC32)c(OC(C)=O)c1` (stereo not shown) [Compound 5], the “inhibition of σ-ADH” value against σ-ADH is “significant inhibition”. For the same compound, the “inhibition of GSNOR (in words)” value against GSNOR [1] is given as “modestly good inhibitor”. With `CC(=O)c1ccc(-n2c(CCC(=O)O)ccc2-c2ccccc2)cc1` [Compound 6], the “type of inhibition against varied NADH” value at GSNOR [2] was “uncompetitive”. In addition, the “nitrosylation, fold higher than Compound 7” value with RAW 264.7 cells (33 μM initial concentration, 500 μM GSNO, 4 hr) is given as 3 fold. In addition, in the assay with RAW 264.7 cells (exposure up to 24 hours, data not shown), the “decrease in nitrosylated species relative to amounts at 4 hours” value was 80%. The “effect on fluorescence of GSNOR bound NADH” value at GSNOR•NADH complex [3] is “quenched the NADH fluorescence”. For `O=C(O)CCCCCCCCCCCO` [Compound 12-HDDA, 12-hydroxydodecanoic acid], at GSNOR•NADH complex [4], the Kd was 170 µM.

As for `N[C@@H](CCC(=O)N[C@@H](CSN=O)C(=O)NCC(=O)O)C(=O)O` [GSNO, s-nitrosoglutathione], in the assay on RAW 264.7 cells (500 μM GSNO alone), the “buildup of nitrosylated compounds in cells” value was “significant buildup” and the “time to equilibrium level of nitrosylated compounds” value was at most 1 h. For `NC(=O)C1=CN([C@@H]2O[C@H](COP(=O)(O)OP(=O)(O)OC[C@H]3O[C@@H](n4cnc5c(N)ncnc54)[C@H](O)[C@@H]3O)[C@@H](O)[C@H]2O)C=CC1` [NADH], the Kd at GSNOR [5] was 0.05 µM. As for `O=C(O)c1ccc2c(c1)C1C=CCC1C(c1ccc(O)cc1O)N2` (stereo not shown) [hydrolyzed form of compound 5], the “inhibition of GSNOR compared with compound 5 (ester)” value on GSNOR [6] is recorded as “three fold higher inhibition”. `CCCCCCCCO` [octanol]: the “KM value, fold higher than GSNO” value on GSNOR [7] is on record as 200 fold.
